Test results from US20060275847A1, “Method for assessing biofilms” (priority 2002, published 2006).

How the values were obtained:
Format in all cases: cell-based, Escherichia coli
XL1-blue and CL182 cells = test: Differential 3D analysis of mixed adhered E. coli cultures grown with selective antibiotics; conditions: for inhibition of biofilm development: summary statement referring to FIGS. 17 and 18
Experimental: (§1) The strains were mixed and grown in the presence of selective antibiotics (tetracycline, ampicillin or chloramphenicol) and the effects were visualised using the IN Cell Analyzer.
(§2) E. coli cultures were grown in batch culture at 37° C. for 16 hours under selective pressure. Cells were pelleted by centrifugation, washed and resuspended in cold PBS. OD600 mn was normalised (to 1) for both cultures and solutions were diluted ten fold in cold PBS. Cells (100 μl) were allowed to settle and adhere to the surface of a Packard microtitre plate (Packard #6005182) at 4° C. for 1 hour. Adhered E. coli were washed twice with PBS (100 μl). Luria broth (100 μl) with or without IPTG (0.2 μM), and ampicillin (100 μg/ml), tetracycline (10 μg/ml) and chloramphenicol (34 μg/ml) were added to adhered cells and incubated at 37° C. for 4 hours and 16 hours. Cells were washed twice with PBS and incubated for 10 minutes in Hoechst 33342 (0.1 μM in PBS). Cells were washed in PBS and imaged sequentially using the UV (365 nm) and blue (488 nm) laser lines to excite Hoechst 33342 and GFP respectively. Emission light was captured using the 450BP65 and 565BP50 filters and collected as 12 bit images; 24 slices were acquired per condition with 1 μm spacing between them.
The images were then analysed using the algorithms described in FIGS. 7 to 14. The voxel dimensions were established prior to conducting the experiment using sub-resolution and super-resolution beads. The analysis thus provides data on the amount of biofilm in both colour planes in three dimensions as described previously. In addition, the overlap between green and blue fluorescent biofilm was calculated in 3D.

E. coli CL182 = test: Differential 3D analysis of adhered E. coli cultures (confocal imaging, adhered culture volume); conditions: Luria broth, chloramphenicol 34 μg/ml, 37° C., 4 hours and 16 hours
Experimental: as §1
as §2, with “Emission light was captured using the 450BP65 and 565BP50 filters and collected as 12 bit images; 24 slices were acquired per condition with 1 μm spacing between them.” left out
(§3) The images were then analysed using the algorithms described in FIGS. 7 to 14. […] In addition, the overlap between green and blue fluorescent biofilm was calculated in 3D.

E. coli XL1-blue = test: as above; conditions: Luria broth, chloramphenicol 34 μg/ml, 37° C., 4 hours and 16 hours
Experimental: as §1
as §2, with “Emission light was captured using the 450BP65 and 565BP50 filters and collected as 12 bit images; 24 slices were acquired per condition with 1 μm spacing between them.” left out
as §3

[1] = test system: tac promoter (GFP expression) in E. coli CL182; test: GFP expression from the IPTG responsive tac promoter in adhered CL182; conditions: without IPTG versus with IPTG (0.2 μM) in Luria broth
Experimental: as §1
as §2, with “Emission light was captured using the 450BP65 and 565BP50 filters and collected as 12 bit images; 24 slices were acquired per condition with 1 μm spacing between them.” left out
as §3

| SMILES | differential inhibition of growth of XL1-blue and CL182 cells (XL1-blue and CL182 cells; ampicillin 100 μg/ml, tetracycline 10 μg/ml, 37° C., 4 hours and 16 hours, XL1-blue tetracycline resistant, CL182 ampicillin resistant) | inhibition of biofilm development (XL1-blue and CL182 cells) | inhibition of growth of CL182 (E. coli CL182) | inhibition of growth of XL1-blue (E. coli XL1-blue) | reduction in the expression of GFP from the tac promoter by CL182 in the absence of IPTG [1] [%] |
| --- | --- | --- | --- | --- | --- |
| CC1(C)S[C@@H]2[C@H](NC(=O)[C@H](N)c3ccccc3)C(=O)N2[C@H]1C(=O)O [ampicillin] | Differential inhibition | differentially inhibit | – | – | – |
| O=C(N[C@H](CO)[C@H](O)c1ccc([N+](=O)[O-])cc1)C(Cl)Cl [chloramphenicol] | – | differentially inhibit | strongly inhibited | strongly inhibited | – |
| CC(C)S[C@@H]1O[C@H](CO)[C@H](O)[C@H](O)[C@H]1O [IPTG] | – | – | – | – | ~25 |
